Legend:
ykt6 [1] = assay: Ykt6 in red blood cells of FTI-treated mice; assay type: in vivo; conditions: WT mice
Excerpt: FIG. 20. Ykt6 in red blood cells of human and mice. A) Fractionation of RBCs/western blot of ykt6. Markers indicate efficient separation of cytosol (GAPDH) and membrane (Ank, Ankyrin-1). […] B) Ykt6 from RBCs of nTg of symptomatic 12 mo old A53T mice (ref 12) (n=3-5).
(See FIG. 20A). […] (See FIG. 20C).

ykt6 [2] = assay: Measurement of farnesyl-ykt6 in SH-SY5Y cells; assay type: cell-based, human; conditions: SH-SY5Y cells expressing GFP-ykt6; 10 nM FTI, 48 hours
Procedure: FIGS. 14A, 14B, 14C, 14D, 14E, 14F, and 14G. The effects of FTI treatment on ykt6 and lysosomes. 14A) Farnesylation of ykt6 was measured in SH-SY5Y cells expressing GFP-ykt6. Cells treated with or without FTI (LNK-754) were cultured with farnesyl-azide to label farnesyl-modified proteins, immunoprecipitated with GFPaffinity beads, and then conjugated with phosphine-biotin. Biotin was detected with streptavidin-conjugated IRDye800, and normalized to total levels of GFP-ykt6. See methods for details. […] 14B) Membrane shift analysis of SH-SY5Y cells stably expressing GFP-ykt6-CS, treated with 5 nM FTI. Calnexin (CNX) and Coomassie blue (CBB) were used as a loading controls. 14C) Gel filtration/western blot analysis of FTI treated A53T iPSn. Ykt6 complex levels eluting at ca. 120A were quantified on the right (n=2). […] 14E) Raw quantification data of LAMP2A immunofluorescence intensity of individual cells from H4 cells treated with FTI, +/−ykt6 KD. Each data point represents LAMP2A intensity from individual cells, from 3 different culture wells. 14F) Analysis of ER-Golgi trafficking of GCase by endo H resistance after treatment with FTI in SH-SY5Y cells overexpressing wt a-syn (n=3). 14G) Western blot analysis of Triton X-100 soluble a-syn in SH-SY5Y wt a-syn cells after treatment with various concentrations of FTI for 5 days. For all quantifications, values are the mean+/−SEM, *p<0.05. […]

GCase = assay: Analysis of post-ER GCase (endo H resistance) in FTI-treated cultures; assay type: cell-based, human; conditions: A53T iPSn and SHSY5Y cells
Procedure: FIGS. 5A, 5B, 5C, 5D, 5E, 5F, and 5G. Reducing farnesyl-ykt6 enhances SNARE assembly and improves the lysosomal targeting of GCase. 5A) Ykt6 membrane shift analysis of SH-SY5Y cells expressing GFP-ykt6 wt or CS (n=3). 5B) Co-IP of GFP-ykt6 and bet1 in A53T iPSn (n=3). 5C) Ykt6 membrane shift analysis in FTI-treated SH-SY5Y wt a-syn cells or A53T iPSn (5 nM farnesyltransferase inhibitors (FTI) LNK-754 (FTI-1) or LNK-3248 (FTI-2) for 5 days) (n=4). Sec22b was measured to assess specificity. 5D) SEC/western blot of FTI-1 treated SH-SY5Y cells. Quantification is shown below. 5E) Co-IP of GFP-ykt6 wt or mutant ykt6-SS, (cannot be palmitoylated or farnesylated) in FTI-treated SHSY5Y cells (5 nM LNK-754, 5d) (n=2). […]
FIGS. 14A, 14B, 14C, 14D, 14E, 14F, and 14G. […] 14A) Farnesylation of ykt6 was measured in SH-SY5Y cells expressing GFP-ykt6. […] Biotin was detected with streptavidin-conjugated IRDye800, and normalized to total levels of GFP-ykt6. […] Ykt6 complex levels eluting at ca. 120A were quantified on the right (n=2). […] 14E) Raw quantification data of LAMP2A immunofluorescence intensity of individual cells from H4 cells treated with FTI, +/−ykt6 KD. […] For all quantifications, values are the mean+/−SEM, *p<0.05.
Analysis of post-ER GCase. […] Endo H resistant bands migrating at 62-64 kDa were measured as post-ER forms of GCase, and normalized to GAPDH levels. […]

mature, endo H-resistant GCase (GCase): significantly elevated
Compound: C#Cc1cccc(-c2cc(=O)n(C)c3ccc([C@](O)(c4ccc(Cl)cc4)c4cncn4C)cc23)c1 [LNK-754]
membrane Ykt6 in red blood cells (ykt6 [1]): increases membrane Ykt6
membrane Ykt6 in red blood cells (ykt6 [1]; listed as FTI): activation of ykt6 in red blood cells
reduction of the farnesyl-ykt6 signal (ykt6 [2]): 40%

Reference: patent US12226410B2, “Methods for enhancing cellular clearance of pathological molecules via activation of the cellular protein ykt6” (NORTHWESTERN UNIVERSITY, priority 2019, dated 2025)
